The species entered for experiment [1] is Homo sapiens. Description: Selectivity index, ratio of Ki for Bcl-2 (unknown origin) to Ki for Bcl-XL (unknown origin).
For experiment [2], the target named is Apoptosis regulator Bcl-2 (Homo sapiens, UniProt P10415). Nature of the experiment: Inhibition of 5-FAM-Bid peptide binding to Bcl-2 (unknown origin) by fluorescence polarization assay.
Experiment [3] is filed under the species Homo sapiens. Description: Selectivity index, ratio of Ki for Bcl-2 (unknown origin) to Ki for MCL-1 (unknown origin).
In experiment [4] the target is Bcl-2-like protein 1 (Homo sapiens, UniProt Q07817). Nature of the experiment: Inhibition of 5-FAM-Bid peptide binding to Bcl-XL (unknown origin) by fluorescence polarization assay.
In experiment [5] the target is Induced myeloid leukemia cell differentiation protein Mcl-1 (Homo sapiens, UniProt Q07820). Description: Inhibition of 5-FAM-Bid peptide binding to MCL-1 (unknown origin) by fluorescence polarization assay.
A short description of experiment [6]: Growth inhibition of human U266 cells after 72 hrs by MTT assay. The experiment is classed as functional, cell-based. The note with it: U-266, 72 h.
The nature of experiment [7]: Growth inhibition of human NCI-H23 cells after 72 hrs by MTT assay. It counts as functional, cell-based. The note with it: NCI-H23, 72 h.
Experiment [8] can be described thus: Growth inhibition of human SKOV3 cells after 72 hrs by MTT assay. The experiment is classed as functional, cell-based. To be noted: SK-OV-3, 72 h.
Experiment [9] is described as follows: Growth inhibition of human HL60 cells after 72 hrs by MTT assay. It counts as functional, cell-based. To be noted: HL-60, 72 h.
Experiment [10] in a line: Growth inhibition of human MCF7 cells after 72 hrs by MTT assay. The experiment is classed as functional, cell-based. The note with it: MCF7, 72 h.

Structures are written as SMILES.

Sequence of Induced myeloid leukemia cell differentiation protein Mcl-1 (Q07820 whole entry): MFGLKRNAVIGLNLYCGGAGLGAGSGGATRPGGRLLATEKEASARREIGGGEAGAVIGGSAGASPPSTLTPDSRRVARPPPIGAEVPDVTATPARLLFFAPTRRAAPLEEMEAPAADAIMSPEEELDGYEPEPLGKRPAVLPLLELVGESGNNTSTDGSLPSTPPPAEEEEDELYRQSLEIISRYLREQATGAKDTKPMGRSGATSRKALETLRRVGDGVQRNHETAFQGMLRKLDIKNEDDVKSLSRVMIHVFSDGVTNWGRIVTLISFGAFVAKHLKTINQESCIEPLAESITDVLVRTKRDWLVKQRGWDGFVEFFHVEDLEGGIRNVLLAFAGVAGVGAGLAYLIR
Sequence of Bcl-2-like protein 1 (Q07817 whole entry): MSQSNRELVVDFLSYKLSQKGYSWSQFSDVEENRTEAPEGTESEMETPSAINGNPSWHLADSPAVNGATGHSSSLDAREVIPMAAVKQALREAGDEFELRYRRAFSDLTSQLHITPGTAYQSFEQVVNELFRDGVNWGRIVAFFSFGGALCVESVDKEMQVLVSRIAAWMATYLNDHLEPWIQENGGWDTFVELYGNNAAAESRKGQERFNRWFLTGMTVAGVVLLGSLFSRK
Sequence of Apoptosis regulator Bcl-2 (P10415 whole entry): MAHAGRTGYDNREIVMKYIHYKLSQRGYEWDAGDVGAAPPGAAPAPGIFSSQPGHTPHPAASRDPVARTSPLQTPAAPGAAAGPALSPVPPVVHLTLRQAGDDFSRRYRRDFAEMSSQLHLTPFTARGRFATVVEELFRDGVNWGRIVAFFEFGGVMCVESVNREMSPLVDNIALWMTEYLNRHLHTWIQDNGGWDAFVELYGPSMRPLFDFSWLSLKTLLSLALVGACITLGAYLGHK

On to `O=C(/C=C/c1cccc(Cl)c1)Nc1ccc(C(=O)NS(=O)(=O)c2ccc(NCCSc3ccccc3)c([N+](=O)[O-])c2)cc1`, for which the Ratio Ki in experiment [1] was 4; in experiment [3], 1. Besides, the Ki is 1300 nM in experiment [2], 290 nM in experiment [4] and 1300 nM in experiment [5].

Consider `O=C(Nc1ccc(C(=O)NS(=O)(=O)c2ccc(NCCSc3ccccc3)c([N+](=O)[O-])c2)cc1)c1ccccc1`, for which the Ratio Ki in experiment [1] is 3; in [3], under 1. For the same compound, the Ki in [2] was determined as 1700 nM; in experiment [4], 630 nM; in experiment [5], 6700 nM.

For `Cc1ccccc1/C=C/C(=O)Nc1ccc(C(=O)NS(=O)(=O)c2ccc(NCCSc3ccccc3)c([N+](=O)[O-])c2)cc1`, the Ratio Ki is 8 in [1] and 2 in experiment [3]. Moreover, the Ki in experiment [2] is 1700 nM; in experiment [4], 210 nM; in experiment [5] it was 830 nM.

With `O=C(Cc1ccccc1)Nc1ccc(C(=O)NS(=O)(=O)c2ccc(NCCSc3ccccc3)c([N+](=O)[O-])c2)cc1`, the Ratio Ki in experiment [1] stood at 9; in [3], 1. Also, the Ki in experiment [2] is 4000 nM; in experiment [4], 450 nM; in experiment [5], 5600 nM.

As to `O=C(/C=C/c1ccccc1)Nc1ccc(C(=O)NS(=O)(=O)c2ccc(NCCSc3ccccc3)c([N+](=O)[O-])c2)cc1`, the Ratio Ki in experiment [1] came to 35; in experiment [3], 3. The Ki in [2] is 4900 nM; in [4], 140 nM; in [5], 1600 nM.

For `CN(C)CC[C@H](CSc1ccccc1)Nc1ccc(S(=O)(=O)NC(=O)c2ccc(N3CCN(Cc4ccccc4-c4ccc(Cl)cc4)CC3)cc2)cc1[N+](=O)[O-]` [ABT 737], the IC50 worked out at 27400 nM in experiment [6]; 71200 nM in experiment [7]; 46600 nM in experiment [8]; 970 nM in experiment [9]; 25300 nM in experiment [10].

On to `Cc1ccc(/C=C/C(=O)Nc2ccc(C(=O)NS(=O)(=O)c3ccc(NCCSc4ccccc4)c([N+](=O)[O-])c3)cc2)cc1`, for which the Ratio Ki in experiment [1] stood at 12; in experiment [3] it was 2. The Ki was 1500 nM in experiment [2], 130 nM in [4] and 630 nM in [5].

`C=C(c1ccc(C(=O)NS(=O)(=O)c2ccc(NCCSc3ccccc3)c([N+](=O)[O-])c2)cc1)c1cc2c(cc1C)C(C)(C)CCC2(C)C`: the Ratio Ki was under 1 in experiment [1] and 70 in experiment [3]. Also, the Ki in experiment [2] is 4200 nM; in experiment [4], over 20000 nM; in [5], 60 nM. For the same compound, the IC50 in [6] worked out at 7630 nM; in experiment [7], 7400 nM; in experiment [8] it was 7640 nM; in experiment [9], 4860 nM; in [10] it was 2250 nM.

For the compound `O=C(/C=C/c1ccccc1C(F)(F)F)Nc1ccc(C(=O)NS(=O)(=O)c2ccc(NCCSc3ccccc3)c([N+](=O)[O-])c2)cc1`, the Ratio Ki in [1] came out at 10; in experiment [3], 3. The results for the Ki in [2], in [4] and in experiment [5] were 1700 nM, 170 nM and 660 nM, respectively.

With `O=C(CCc1ccccc1)Nc1ccc(C(=O)NS(=O)(=O)c2ccc(NCCSc3ccccc3)c([N+](=O)[O-])c2)cc1`, the Ratio Ki turned out to be 14 in experiment [1] and 1 in [3]. In addition, the figures for the Ki in [2], in [4] and in experiment [5] were 4400 nM, 320 nM and 6900 nM, respectively.

As to `O=C(/C=C/c1ccccc1Cl)Nc1ccc(C(=O)NS(=O)(=O)c2ccc(NCCSc3ccccc3)c([N+](=O)[O-])c2)cc1`, the Ratio Ki in experiment [1] was 5; in experiment [3] it was under 1. Also, the figures for the Ki in experiment [2], in [4] and in [5] were 600 nM, 120 nM and 14000 nM, respectively.

`Cc1cc2c(C(C)C)c(O)c(O)c(C=O)c2c(O)c1-c1c(C)cc2c(C(C)C)c(O)c(O)c(C=O)c2c1O` [GOSSYPOL]: in [5], affinity was put at a Ki of 640 nM.

Consider `O=C(/C=C/c1ccc(Cl)cc1)Nc1ccc(C(=O)NS(=O)(=O)c2ccc(NCCSc3ccccc3)c([N+](=O)[O-])c2)cc1`, for which the Ratio Ki in [1] is 5; in experiment [3] it was under 1. Further, the Ki amounted to 1100 nM in experiment [2], 210 nM in experiment [4] and 2700 nM in experiment [5].

For the compound `COc1cccc(/C=C/C(=O)Nc2ccc(C(=O)NS(=O)(=O)c3ccc(NCCSc4ccccc4)c([N+](=O)[O-])c3)cc2)c1`, the Ratio Ki is 17 in [1] and 2 in [3]. Also, the results for the Ki in experiment [2], in experiment [4] and in [5] were 1900 nM, 110 nM and 800 nM, respectively.

In the case of `COc1ccccc1/C=C/C(=O)Nc1ccc(C(=O)NS(=O)(=O)c2ccc(NCCSc3ccccc3)c([N+](=O)[O-])c2)cc1`, the Ratio Ki in [1] was 8; in experiment [3] it was under 1. The Ki turned out to be 720 nM in experiment [2], 90 nM in [4] and 8600 nM in [5].

In the case of `COc1ccc(/C=C/C(=O)Nc2ccc(C(=O)NS(=O)(=O)c3ccc(NCCSc4ccccc4)c([N+](=O)[O-])c3)cc2)cc1`, the figures for the Ratio Ki in experiment [1] and in [3] were 19 and 2, respectively. Besides, the Ki worked out at 1300 nM in experiment [2], 70 nM in [4] and 590 nM in [5].

As to `Cc1cccc(/C=C/C(=O)Nc2ccc(C(=O)NS(=O)(=O)c3ccc(NCCSc4ccccc4)c([N+](=O)[O-])c3)cc2)c1`, the Ratio Ki in experiment [1] came to 11; in experiment [3] it was 4. The Ki in experiment [2] worked out at 1700 nM; in [4], 160 nM; in experiment [5] it was 440 nM.

With `C=C(c1ccc(C(=O)Nc2ccc(C(=O)NS(=O)(=O)c3ccc(NCCSc4ccccc4)c([N+](=O)[O-])c3)cc2)cc1)c1cc2c(cc1C)C(C)(C)CCC2(C)C`, the values for the Ratio Ki in experiment [1] and in [3] were under 1 and 11, respectively. Also, the Ki was 3100 nM in experiment [2], over 20000 nM in experiment [4] and 290 nM in experiment [5]. The IC50 was 6950 nM in experiment [6]; 8380 nM in experiment [7]; 7830 nM in [8]; 2920 nM in [9]; 260 nM in [10].

With `O=C(/C=C/c1ccc(C(F)(F)F)cc1)Nc1ccc(C(=O)NS(=O)(=O)c2ccc(NCCSc3ccccc3)c([N+](=O)[O-])c2)cc1`, the values for the Ratio Ki in experiment [1] and in experiment [3] were 4 and 1, respectively. In addition, the Ki came out at 2000 nM in experiment [2], 510 nM in [4] and 1700 nM in experiment [5].

For `O=C(/C=C/c1cccc(C(F)(F)F)c1)Nc1ccc(C(=O)NS(=O)(=O)c2ccc(NCCSc3ccccc3)c([N+](=O)[O-])c2)cc1`, the Ratio Ki in experiment [1] was 9; in [3], under 1. In addition, the Ki in experiment [2] came out at 2600 nM; in experiment [4], 290 nM; in experiment [5], 5400 nM.

As for `O=C(NS(=O)(=O)c1ccc(NCCSc2ccccc2)c([N+](=O)[O-])c1)c1ccc(C(=O)c2ccccc2)cc1`, the Ratio Ki in [1] was 10; in [3], 1. Moreover, the Ki was 3400 nM in experiment [2], 330 nM in experiment [4] and 4000 nM in experiment [5].
